# Measurements reported in PMC6222847, “Application of HPCCC Combined with Polymeric Resins and HPLC for the Separation of Cyclic Lipopeptides Muscotoxins A–C and Their Antimicrobial Activity” (Molecules : A Journal of Synthetic Chemistry and Natural …, 2018).
# *1 amine or outer side, *2 acyl side, *3 side chain or, on linkers, in order; H or OH if unused. Where a SMILES comes first, the peptide text is derived from it. [ ]: non-standard residue; d: D form. X1 = CCCCCC(O)CC(N[*:1])C(O)C(=O)[*:2]; d(aIle) = CC[C@H](C)[C@@H](N)C(=O)O; Dhb = C/C=C(\N)C(=O)O
# What was measured:
# Assay type in all cases: cell-based
# Bacillus subtilis = assay: Broth two-fold microdilution; conditions: B. subtilis CCM1999; Mueller Hinton broth, 300–0.0732 µg/mL (control 32–0.0625), 37 °C 16 h, triplicate; MIC = least concentration showing any inhibition in the growth
# Experimental: Furthermore, compound 1 was evaluated for its antimicrobial activity against five bacterial isolates; S. aureus (CCM3824), B. subtilis (CCM1999), S. sanguinis (CCM4047), P. aeruginosa (CCM1959), E. coli (CCM2024), and eight fungal isolates; C. friedrichii (BCC020_2879), A. fumigatus (BCC020_2845), F. oxysporum (BCC020_2866), T. harzianum (BCC020_0606), B. sorokiniana (BCC020_1571), M. cucumerina (BCC020_2872), C. globosum (BCC020_2527), and A. alternata (BCC020_0609) using broth two-fold microdilution method following the standard protocol. Briefly, for broth microdilution method, the compounds were serially diluted at varying concentrations between 300 and 0.0732 µg/mL in Mueller Hinton broth (for bacteria) and Muller Hinton broth with 2% glucose (for fungi) in 96-well plates. Culture broth (0.1 mL) was added to each well containing the compound. […] MIC95 was determined as the concentration required to inhibit or kill 95% of bacterial isolates spectroscopically at 600 nm. Minimum fungicidal concentration (MFCs) were determined after 48 h incubation by removing 10 µL of the contents from wells showing no visible growth and spreading them on to Sabouraud dextrose agar plates. The plates were then incubated for 72 h and MFCs were determined as the concentrations which killed 95–100% of the inoculum. […]
# Alternaria alternata = assay: microbe, parasite or virus in culture
# Experimental: (§1) Furthermore, compound 1 was evaluated for its antimicrobial activity against five bacterial isolates; S. aureus (CCM3824), B. subtilis (CCM1999), S. sanguinis (CCM4047), P. aeruginosa (CCM1959), E. coli (CCM2024), and eight fungal isolates; C. friedrichii (BCC020_2879), A. fumigatus (BCC020_2845), F. oxysporum (BCC020_2866), T. harzianum (BCC020_0606), B. sorokiniana (BCC020_1571), M. cucumerina (BCC020_2872), C. globosum (BCC020_2527), and A. alternata (BCC020_0609) using broth two-fold microdilution method following the standard protocol. Briefly, for broth microdilution method, the compounds were serially diluted at varying concentrations between 300 and 0.0732 µg/mL in Mueller Hinton broth (for bacteria) and Muller Hinton broth with 2% glucose (for fungi) in 96-well plates. Culture broth (0.1 mL) was added to each well containing the compound. Plates were incubated aerobically at 37 °C for 16 h (bacteria) and 30 °C for 48 h (for fungi). Negative controls were prepared separately with respective organisms in the same culture media with methanol (the dissolving solvent). Positive controls were also prepared separately with respective organisms. Erythromycin (32–0.0625 µg/mL) was used as positive control for S. aureus and S. sanguinis, gentamycin (32–0.0625 µg/mL) was used as positive control for Bacillus subtilis, E. coli, and P. aeruginosa, whereas fluconazole (32–0.0625 µg/mL) was used as positive control for all the fungal isolates. After incubation, the well with the least concentration of the compound showing any inhibition in the growth was taken as the MIC value for the respective organisms. MIC95 was determined as the concentration required to inhibit or kill 95% of bacterial isolates spectroscopically at 600 nm. Minimum fungicidal concentration (MFCs) were determined after 48 h incubation by removing 10 µL of the contents from wells showing no visible growth and spreading them on to Sabouraud dextrose agar plates. The plates were then incubated for 72 h and MFCs were determined as the concentrations which killed 95–100% of the inoculum. All the experiments were done in triplicate.
# Aspergillus fumigatus = assay: microbe, parasite or virus in culture
# Experimental: as §1
# Candida friedrichii = assay: microbe, parasite or virus in culture
# Experimental: as §1
# Chaetomium globosum = assay: microbe, parasite or virus in culture
# Experimental: as §1
# Fusarium oxysporum = assay: microbe, parasite or virus in culture
# Experimental: as §1
# Monographella cucumerina = assay: microbe, parasite or virus in culture
# Experimental: as §1
# Trichoderma harzianum = assay: microbe, parasite or virus in culture
# Experimental: as §1
smiles,measurement,setting,value
"C/C=C1\NC(=O)[C@H](CO)NC(=O)[C@@H]([C@@H](C)CC)NC(=O)[C@H](Cc2ccccc2)NC(=O)[C@@H]2CCCN2C(=O)CNC(=O)[C@@H](CCC(N)=O)NC(=O)C(O)C(CC(O)CCCCC)NC(=O)[C@@H]2CCCN2C(=O)[C@@H]([C@@H](C)CC)NC(=O)[C@H](CO)NC1=O (stereo partly drawn) [compound 2, muscotoxin A] (cyclo([Dhb]S[d(aIle)]P[X1][dQ]GPF[d(aIle)]S))",MIC,Bacillus subtilis,37.5 µg/mL
same,MIC,"Alternaria alternata; A. alternata BCC020_0609, Muller Hinton broth with 2% glucose, 300–0.0732 µg/mL (control 32–0.0625), 30 °C 48 h, triplicate, least concentration showing any inhibition",0.58 µg/mL
same,MFC,"Alternaria alternata; A. alternata, 10 µL from wells without visible growth after 48 h spread on Sabouraud dextrose agar, 72 h, kills 95–100% of the inoculum",75 µg/mL
same,MIC,"Aspergillus fumigatus; A. fumigatus BCC020_2845, Muller Hinton broth with 2% glucose, 300–0.0732 µg/mL (control 32–0.0625), 30 °C 48 h, triplicate, least concentration showing any inhibition",2.34 µg/mL
same,MFC,"Aspergillus fumigatus; A. fumigatus, 10 µL from wells without visible growth after 48 h spread on Sabouraud dextrose agar, 72 h, kills 95–100% of the inoculum",37.5 µg/mL
same,MIC,"Candida friedrichii; C. friedrichii BCC020_2879, Muller Hinton broth with 2% glucose, 300–0.0732 µg/mL (control 32–0.0625), 30 °C 48 h, triplicate, least concentration showing any inhibition",75 µg/mL
same,MFC,"Candida friedrichii; C. friedrichii, 10 µL from wells without visible growth after 48 h spread on Sabouraud dextrose agar, 72 h, kills 95–100% of the inoculum",<300 µg/mL
same,MIC,"Chaetomium globosum; C. globosum BCC020_2527, Muller Hinton broth with 2% glucose, 300–0.0732 µg/mL (control 32–0.0625), 30 °C 48 h, triplicate, least concentration showing any inhibition",18.75 µg/mL
same,MFC,"Chaetomium globosum; C. globosum, 10 µL from wells without visible growth after 48 h spread on Sabouraud dextrose agar, 72 h, kills 95–100% of the inoculum",<300 µg/mL
same,MIC,"Fusarium oxysporum; F. oxysporum BCC020_2866, Muller Hinton broth with 2% glucose, 300–0.0732 µg/mL (control 32–0.0625), 30 °C 48 h, triplicate, least concentration showing any inhibition",75 µg/mL
same,MFC,"Fusarium oxysporum; F. oxysporum, 10 µL from wells without visible growth after 48 h spread on Sabouraud dextrose agar, 72 h, kills 95–100% of the inoculum",<300 µg/mL
same,MIC,"Monographella cucumerina; M. cucumerina BCC020_2872, Muller Hinton broth with 2% glucose, 300–0.0732 µg/mL (control 32–0.0625), 30 °C 48 h, triplicate, least concentration showing any inhibition",2.34 µg/mL
same,MFC,"Monographella cucumerina; M. cucumerina, 10 µL from wells without visible growth after 48 h spread on Sabouraud dextrose agar, 72 h, kills 95–100% of the inoculum",75 µg/mL
same,MIC,"Trichoderma harzianum; T. harzianum BCC020_0606, Muller Hinton broth with 2% glucose, 300–0.0732 µg/mL (control 32–0.0625), 30 °C 48 h, triplicate, least concentration showing any inhibition",37.5 µg/mL
same,MFC,"Trichoderma harzianum; T. harzianum, 10 µL from wells without visible growth after 48 h spread on Sabouraud dextrose agar, 72 h, kills 95–100% of the inoculum",300 µg/mL
